Measured values published in patent US20200291355A1, “ENGINEERED ERYTHROID CELLS INCLUDING LOADABLE ANTIGEN-PRESENTING POLYPEPTIDES AND METHODS OF USE” (Rubius Therapeutics, Inc., priority 2019, published 2020).

Tested on: wt HLA-A2 or ds HLA-A2 antigen-presenting polypeptide (HLA*02:01)
Experiment: Binding kinetics of TAMRA-labeled HPV E7 antigenic polypeptides onto engineered enucleated erythroid cells (flow cytometry)
Parameters: species or system human
Conditions: 10 ng/mL, about 90 minutes, 4° C., RT and 37° C.
Protocol: To examine the antigenic polypeptide loading kinetics of loadable antigen-presenting polypeptides, the following experiment was performed.

Sequence: YMLDLQPKT [HPV E7-E18K]
- Loading rate of fluorescent peptide compared with HPV E7-GGK (onto cells including ds HLA-A2): more rapidly
- Loading rate of fluorescent peptide compared with HPV E7-GGK (onto cells including wt HLA-A2): more rapidly
